# Measurements taken from patent US10947227B2, “Tricyclic heterocyclic compounds as sting activators” (Incyte Corporation, priority 2018, dated 2021).
# Test system: IRF3 activation in THP-1 Dual Cells
# Test: IRF3 activation assay in THP-1 Dual Cells (QUANTI-Blue readout)
# Assay type: cell-based
# Details: Homo sapiens, THP1-Dual, 24 h
# Description: THP-1 Dual Cells (Invivogen) were maintained in RPMI1640 medium with addition of 10% FBS, 100 μg/ml zeocin, 10 μg/ml blasticidin. Cells were added in a 96-well flat bottom assay plate at 100,000 per well in 100 μL complete RPMI medium. Test compounds were prepared by serial dilution in complete RPMI medium and 100 μL test compounds were transferred to each corresponding well. The assay plate was incubated at 37° C., 5% CO2 for 24 hours. After the overnight incubation, 20 μL of the culture supernatants were collected, followed by addition of 180 μL of QUANTI-Blue (Invivogen) to assess IRF3 activity. The amount of IRF3 activation was assessed by reading the absorbance at 620-655 nm with a microplate reader 2 hours later. The culture supernatant from the untreated THP-1 cells was used as the negative control. To determine the NF-κB activation, another 20 μL of culture supernatant were transferred to a 96-well white plate, followed by addition of 50 μL of Quanti-Luc™ assay solution (Invivogen). The amount of NF-κB activation induced by the test compounds were determined by the luminescence above the untreated control. EC50 determination was performed by fitting the curve of percent control activity versus the log of the compound concentration using the GraphPad Prism 6.0 software.
structure (smiles),measurement,setting,value
"CCn1nc(C)cc1C(=O)Nc1nc2cc(C(N)=O)cc(C)c2n1C/C=C/Cn1c2ccc(C(N)=O)cc2c2cnc(-c3cc(C)nn3CC)nc21 [Example 1, (E)-9-(4-(5-carbamoyl-2-(1-ethyl-3-methyl-1H-pyrazole-5-carboxamido)-7-methyl-1H-benzo[d]imidazol-1-yl)but-2-enyl)-2-(1-ethyl-3-methyl-1H-pyrazol-5-yl)-9H-pyrimido[4,5-b]indole-6-carboxamide]",EC50,"Table 1, 24 hours incubation",< 1000 nM
same,EC50,"Table 2, 24 hours incubation",50 to 200 nM
"CCn1nc(C)cc1C(=O)Nc1nc2cc(C(N)=O)cc(C)c2n1C/C=C/Cn1c2ccccc2c2cnc(-c3cc(C)nn3CC)nc21 [Example 2, (E)-1-(4-(2-(1-ethyl-3-methyl-1H-pyrazol-5-yl)-9H-pyrimido[4,5-b]indol-9-yl)but-2-enyl)-2-(1-ethyl-3-methyl-1H-pyrazole-5-carboxamido)-7-methyl-1H-benzo[d]imidazole-5-carboxamide]",EC50,"Table 1, 24 hours incubation",< 1000 nM
same,EC50,"Table 2, 24 hours incubation",200 to 500 nM
"CCn1nc(C)cc1C(=O)Nc1nc2cc(C(N)=O)cc(C)c2n1C/C=C/Cn1c2ccc(C(N)=O)cc2c2cnc(-c3cc(C)nn3C)nc21 [Example 3, (E)-9-(4-(5-carbamoyl-2-(1-ethyl-3-methyl-1H-pyrazole-5-carboxamido)-7-methyl-1H-benzo[d]imidazol-1-yl)but-2-enyl)-2-(1,3-dimethyl-1H-pyrazol-5-yl)-9H-pyrimido[4,5-b]indole-6-carboxamide]",EC50,"Table 1, 24 hours incubation",< 1000 nM
"CCn1nc(C)cc1C(=O)Nc1nc2cc(C(N)=O)cc(OC)c2n1C/C=C/Cn1c2ccc(C(N)=O)cc2c2cnc(-c3cc(C)nn3CC)nc21 [Example 4, (E)-9-(4-(5-carbamoyl-2-(1-ethyl-3-methyl-1H-pyrazole-5-carboxamido)-7-methoxy-1H-benzo[d]imidazol-1-yl)but-2-enyl)-2-(1-ethyl-3-methyl-1H-pyrazol-5-yl)-9H-pyrimido[4,5-b]indole-6-carboxamide]",EC50,"Table 1, 24 hours incubation",< 1000 nM
same,EC50,"Table 2, 24 hours incubation",500 to 1000 nM
"CCn1nc(C)cc1C(=O)Nc1nc2cc(C(N)=O)cc(C)c2n1C/C=C/Cn1c2ccc(C(N)=O)cc2c2ccc(-c3cc(C)nn3CC)nc21 [Example 5, (E)-9-(4-(5-carbamoyl-2-(1-ethyl-3-methyl-1H-pyrazole-5-carboxamido)-7-methyl-1H-benzo[d]imidazol-1-yl)but-2-en-1-yl)-2-(1-ethyl-3-methyl-1H-pyrazol-5-yl)-9H-pyrido[2,3-b]indole-6-carboxamide]",EC50,"Table 1, 24 hours incubation",< 1000 nM
same,EC50,"Table 2, 24 hours incubation",50 to 200 nM
"CCCn1nc(C)cc1-c1ncc2c3cc(C(N)=O)ccc3n(C/C=C/Cn3c(NC(=O)c4cc(C)nn4CC)nc4cc(C(N)=O)cc(C)c43)c2n1 [Example 6, (E)-9-(4-(5-carbamoyl-2-(1-ethyl-3-methyl-1H-pyrazole-5-carboxamido)-7-methyl-1H-benzo[d]imidazol-1-yl)but-2-enyl)-2-(3-methyl-1-propyl-1H-pyrazol-5-yl)-9H-pyrimido[4,5-b]indole-6-carboxamide]",EC50,"Table 1, 24 hours incubation",< 200 nM
same,EC50,"Table 2, 24 hours incubation",< 50 nM
"CCn1nc(C)cc1C(=O)Nc1nc2cc(C(N)=O)cc(C)c2n1C/C=C/Cn1c2ccc(C(N)=O)cc2c2cnc(-c3ccnn3CC)nc21 [Example 7, (E)-9-(4-(5-carbamoyl-2-(1-ethyl-3-methyl-1H-pyrazole-5-carboxamido)-7-methyl-1H-benzo[d]imidazol-1-yl)but-2-enyl)-2-(1-ethyl-1H-pyrazol-5-yl)-9H-pyrimido[4,5-b]indole-6-carboxamide]",EC50,"Table 1, 24 hours incubation",< 1000 nM
same,EC50,"Table 2, 24 hours incubation",200 to 500 nM
"CCc1nn(C)cc1-c1ncc2c3cc(C(N)=O)ccc3n(C/C=C/Cn3c(NC(=O)c4cc(C)nn4CC)nc4cc(C(N)=O)cc(C)c43)c2n1 [Example 8, (E)-9-(4-(5-carbamoyl-2-(1-ethyl-3-methyl-1H-pyrazole-5-carboxamido)-7-methyl-1H-benzo[d]imidazol-1-yl)but-2-enyl)-2-(3-ethyl-1-methyl-1H-pyrazol-4-yl)-9H-pyrimido[4,5-b]indole-6-carboxamide]",EC50,"Table 1, 24 hours incubation",< 1000 nM
same,EC50,"Table 2, 24 hours incubation",500 to 1000 nM
